Values joined by “and” are separate entries in the source; they are usually repeats but may differ in a detail not shown here. Equal values may be shown once. “Also recorded” adds a separate entry of the source. Read-outs that look alike come from different tables or passages of the source.
How the values were obtained:
H292A mutant of wt-PTDH = H292A mutant of wt-PTDH (Stutzerimonas stutzeri, UniProt O69054, H292A); format: biochemical, Pseudomonas stutzeri WM88; settings: 10–100 mM reagent
H292G mutant of wt-PTDH = H292G mutant of wt-PTDH (Stutzerimonas stutzeri, UniProt O69054, H292G); format: biochemical, Pseudomonas stutzeri WM88; settings: 10–100 mM reagent
17X-PTDH-R301A [1] = molecular target: T1, 17X-PTDH-R301A (Stutzerimonas stutzeri (Pseudomonas stutzeri), UniProt O69054, D13E/E130K/I150F/M26I/Q132R/Q137R/R301A/V71I, form not given); format: biochemical, Pseudomonas stutzeri WM88; settings: for k rescue/ K m, phosphite: R301A with saturating rescue reagent; for EC50: pH 7.25, 25°C, read-out: K R (concentration of rescue reagent at which half-maximal rate was observed); for K m, phosphite (apparent): rescue agent and NAD+ saturating (>10 K R); for Rescue of activity of the R301A mutant: exogenous reagent, unsuccessful ones tested at 20–100 mM depending on solubility
[2] = parameters: method as in earlier work; settings: cited from earlier work
17X-PTDH-R301A [3] = molecular target: T1, 17X-PTDH-R301A; format: biochemical, Pseudomonas stutzeri WM88; settings: saturating rescue reagent (>20 K R), deuterated vs protiated phosphite, pH 7.25, 25°C
[4] = Expected proportion of aminoguanidine in unprotonated and protonated states at various pH values; format: physicochemical
17X-PTDH-R301A [5] = molecular target: T1, 17X-PTDH-R301A; format: biochemical, Pseudomonas stutzeri WM88
17X-PTDH [6] = test: Sulfite inhibition of 17X-PTDH; format: biochemical, Pseudomonas stutzeri WM88; settings: competitive vs phosphite, 4 mM NAD+, pH 7.25, read-out: K is
Method: Reactions were performed in 100 mM MOPS (pH 7.25) at saturating concentrations of 4 mM NAD^+. Sodium sulfite was adjusted to the desired concentration by serial dilution from a 0.5 M stock solution. Sulfite concentration was adjusted to 0, 50, 100, 150, 200 or 300 µM for R301A or 0, 0.5, 1, 5, 10 or 20 µM for 17X-PTDH. An experiment was also performed with 17X-PTDH-R301A and saturating concentrations of 300 mM aminoguanidine, with sulfite concentrations of 0, 100, 200, 300, 400 or 500 µM. The reaction was initiated by addition of PTDH (0.1 µM final concentration, 5 µM for R301A). At each concentration of inhibitor, phosphite concentration was varied. The data was analyzed in GraFit 7.0 [28] using the equation for competitive inhibition (Equation 3) to fit all of the data, where I is the inhibitor concentration and K is the dissociation constant for a competitive inhibitor [29]. [drawing 5] (3)

17X-PTDH-R301A [7] = molecular target: T1, 17X-PTDH-R301A; format: biochemical, Pseudomonas stutzeri WM88; settings: pH 7.25, read-out: K is
17X-PTDH [8] = test: Phosphite dissociation constant for 17X-PTDH by the method of Klinman and Matthews; format: biochemical, Pseudomonas stutzeri WM88; settings: calculated from ^D(V/K), ^DV and K m,Phosphite
R301A = test: Phosphite Kd and Km for R301A; format: biochemical, Pseudomonas stutzeri WM88
[9] = wt enzyme, pH 7.25, cited from earlier work
[10] = wt enzyme, pH 7.25; ref (1) Relyea et al., 2005; cited from earlier work
[11] = R301A, k cat,apparent at saturating rescue reagent, 100 mM MOPS pH 7.25, 25°C, 4 mM NAD+
[12] = 0–2.0 mM aminoguanidine, 1 M phosphite, 4 mM NAD+, first experiment
[13] = repeat with a different batch of enzyme and reagents

T1 sequence (O69054 1-329 D13E/E130K/I150F/M26I/Q132R/Q137R/R301A/V71I): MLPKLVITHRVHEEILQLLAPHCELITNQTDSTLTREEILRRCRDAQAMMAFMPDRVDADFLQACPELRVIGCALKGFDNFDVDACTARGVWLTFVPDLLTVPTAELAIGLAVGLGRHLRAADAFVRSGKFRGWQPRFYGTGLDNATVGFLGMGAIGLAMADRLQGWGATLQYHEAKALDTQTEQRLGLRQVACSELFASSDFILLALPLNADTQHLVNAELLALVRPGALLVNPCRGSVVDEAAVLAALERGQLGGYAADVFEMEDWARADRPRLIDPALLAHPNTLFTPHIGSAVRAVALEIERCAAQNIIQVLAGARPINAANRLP

With c1nc[nH]n1 [1,2,4-triazole] the “Rescue of activity of H292A mutant” value (H292A mutant of wt-PTDH) was “no activity; also recorded: failed to result in any activity” and the “Rescue of activity of H292G mutant” value (H292G mutant of wt-PTDH) was “no activity; also recorded: failed to result in any activity”.

For N=C(N)NC(N)=O [N-guanylurea], the “[drawing 6] (Brønsted plot ordinate; uses K R corrected for free base concentration at pH 7.25)” value (17X-PTDH-R301A [1]; pH 7.25) is listed as −2.9 (0.2), the k rescue (17X-PTDH-R301A [1]; pH 7.25) is listed as 0.42 (0.07) s^−1 and the “pK a (conjugate acid of rescue reagent)” value [2] is listed as 3.9.

In the case of CC(=N)N [acetamidine], the “k rescue/ K m, phosphite” value (17X-PTDH-R301A [1]; pH 7.25) is reported as 6.7 (1.1) M^−1 s^−1, the k rescue (17X-PTDH-R301A [1]; [11]) is reported as 0.86 (0.08) s^−1 and the “[drawing 6] (Brønsted plot ordinate; uses K R corrected for free base concentration at pH 7.25)” value (17X-PTDH-R301A [1]; R301A, pH 7.25) is reported as 6.3 (0.1). The EC50 (17X-PTDH-R301A [1]; R301A) was 63 mM, the “K m, phosphite (apparent)” value (17X-PTDH-R301A [1]; R301A, pH 7.25) was 130 (20) mM and the “Rescue of activity of the R301A mutant” value (17X-PTDH-R301A [1]) was “markedly improved”. For the same molecule, the “pK a (conjugate acid of rescue reagent)” value [2] was 12.5, the “^D k cat” value (17X-PTDH-R301A [3]) was 1.5 (0.1) and the “^D k cat/K m” value (17X-PTDH-R301A [3]) was 1.8 (0.6).

In the case of N=C(N)NN [aminoguanidine], the “k rescue/ K m, phosphite” value (17X-PTDH-R301A [1]; pH 7.25) is reported as 180 (10) M^−1 s^−1, the k rescue (17X-PTDH-R301A [1]; [11]) is reported as 1.4 (0.1) s^−1 and the “[drawing 6] (Brønsted plot ordinate; uses K R corrected for free base concentration at pH 7.25)” value (17X-PTDH-R301A [1]; R301A, pH 7.25) is reported as 5.3 (0.1). For the same molecule, the EC50 (17X-PTDH-R301A [1]; R301A) was 32 mM, the “K m, phosphite (apparent)” value (17X-PTDH-R301A [1]; R301A, pH 7.25) was 7.4 (0.5) mM and the “Activity with saturating rescue agent relative to wild-type activity” value (17X-PTDH-R301A [1]; R301A, saturating substrate and rescue agent) was “about 40%”. For the same molecule, the “Rescue of activity of the R301A mutant” value (17X-PTDH-R301A [1]) was “markedly improved”, the “Ratio of concentrations of reagent (pH 7.5 : pH 7), protonated” value [4] was 1.0 and the “Ratio of concentrations of reagent (pH 7.5 : pH 7), unprotonated” value [4] was 3.2. The “Ratio of concentrations of reagent (pH 8 : pH 7), protonated” value [4] was 1.0, the “Ratio of concentrations of reagent (pH 8 : pH 7), unprotonated” value [4] was 10.0 and the “Protonated (RNH3^+) proportion” value ([4]; pH 7.0) was 99.99%. The “Unprotonated (RNH2) proportion” value ([4]; pH 7.0) was 0.01%, the “Protonated (RNH3^+) proportion” value ([4]; pH 7.5) was 99.97% and the “Unprotonated (RNH2) proportion” value ([4]; pH 7.5) was 0.03%. The “Protonated (RNH3^+) proportion” value ([4]; pH 8.0) was 99.90%, the “Unprotonated (RNH2) proportion” value ([4]; pH 8.0) was 0.10% and the “pK a (conjugate acid of rescue reagent)” value [2] was 11.0. For the same molecule, the “^D k cat” value (17X-PTDH-R301A [3]) was 2.1 (0.1), the “^D k cat/K m” value (17X-PTDH-R301A [3]) was 3.1 (0.3) and the “Ratio of slopes of k cat,apparent vs rescue agent concentration, pH 7.5 : pH 7.0” value (17X-PTDH-R301A [5]; [12]) was 1.2±0.1. For the same molecule, the “Ratio of slopes of k cat,apparent vs rescue agent concentration, pH 8.0 : pH 7.0” value (17X-PTDH-R301A [5]; [12]) was 3.7±0.3, the “Ratio of slopes, pH 7.5 : pH 7.0” value (17X-PTDH-R301A [5]; [13]) was 1.6±0.1 and the “Ratio of slopes, pH 8.0 : pH 7.0” value (17X-PTDH-R301A [5]; [13]) was 3.0±0.1.

For CCCCN [butylamine, n-butylamine], the “Rescue of activity of the R301A mutant” value (17X-PTDH-R301A [1]) was “not observed”.

For CCN [ethylamine], the “Rescue of activity of the R301A mutant” value (17X-PTDH-R301A [1]) was “not observed”.

For CCNC(=N)N [ethylguanidine], the k rescue (17X-PTDH-R301A [1]; [11]) was 0.52 (0.13) s^−1, the “[drawing 6] (Brønsted plot ordinate; uses K R corrected for free base concentration at pH 7.25)” value (17X-PTDH-R301A [1]; R301A, pH 7.25) was 6.1 (0.2) and the “Rescue of activity of the R301A mutant” value (17X-PTDH-R301A [1]) was “markedly improved”. For the same molecule, the “pK a (conjugate acid of rescue reagent)” value [2] was 13.3.

In the case of N=C(N)N [guanidine], the “k rescue/ K m, phosphite” value (17X-PTDH-R301A [1]; pH 7.25) is reported as 41 (4) M^−1 s^−1, the k rescue (17X-PTDH-R301A [1]; [11]) is reported as 1.2 (0.1) s^−1 and the “[drawing 6] (Brønsted plot ordinate; uses K R corrected for free base concentration at pH 7.25)” value (17X-PTDH-R301A [1]; R301A, pH 7.25) is reported as 8.1 (0.1). For the same molecule, the EC50 (17X-PTDH-R301A [1]; R301A) was 18 mM, the “K m, phosphite (apparent)” value (17X-PTDH-R301A [1]; R301A, pH 7.25) was 30 (3) mM and the “Rescue of activity of the R301A mutant” value (17X-PTDH-R301A [1]) was “markedly improved”. For the same molecule, the “pK a (conjugate acid of rescue reagent)” value [2] was 13.6, the “^D k cat” value (17X-PTDH-R301A [3]) was 1.8 (0.1) and the “^D k cat/K m” value (17X-PTDH-R301A [3]) was 2.3 (0.1).

With NC(=O)NO [hydroxyurea] the “Rescue of activity of the R301A mutant” value (17X-PTDH-R301A [1]) was “not observed”.

In the case of c1c[nH]cn1 [imidazole], the “Rescue of activity of H292A mutant” value (H292A mutant of wt-PTDH) is reported as “no activity; also recorded: failed to result in any activity” and the “Rescue of activity of H292G mutant” value (H292G mutant of wt-PTDH) is reported as “no activity; also recorded: failed to result in any activity”.

For CN [methylamine], the “Rescue of activity of the R301A mutant” value (17X-PTDH-R301A [1]) was “not observed”, the “Rescue of activity of H292A mutant” value (H292A mutant of wt-PTDH) was “no activity” and the “Rescue of activity of H292G mutant” value (H292G mutant of wt-PTDH) was “no activity”.

With CN=C(N)N [methylguanidine] the “k rescue/ K m, phosphite” value (17X-PTDH-R301A [1]; pH 7.25) was 5.2 (1.1) M^−1 s^−1, the k rescue (17X-PTDH-R301A [1]; [11]) was 0.68 (0.04) s^−1 and the “[drawing 6] (Brønsted plot ordinate; uses K R corrected for free base concentration at pH 7.25)” value (17X-PTDH-R301A [1]; R301A, pH 7.25) was 7.2 (0.1). For the same molecule, the EC50 (17X-PTDH-R301A [1]; R301A) was 55 mM, the “K m, phosphite (apparent)” value (17X-PTDH-R301A [1]; R301A, pH 7.25) was 130 (30) mM and the “Rescue of activity of the R301A mutant” value (17X-PTDH-R301A [1]) was “markedly improved”. For the same molecule, the “pK a (conjugate acid of rescue reagent)” value [2] was 13.4, the “^D k cat” value (17X-PTDH-R301A [3]) was 1.4 (0.1) and the “^D k cat/K m” value (17X-PTDH-R301A [3]) was 1.6 (0.5).

For O=S(O)O [sulfite], the Ki (17X-PTDH [6]) was 0.00031 mM, the Ki (17X-PTDH-R301A [7]; R301A + saturating 300 mM aminoguanidine) was 0.078 mM and the Ki (17X-PTDH-R301A [7]; R301A, competitive vs phosphite, 4 mM NAD+) was 0.13 mM.

With NC(N)=S [thiourea] the “Rescue of activity of the R301A mutant” value (17X-PTDH-R301A [1]) was “not observed”.

For NC(N)=O [urea], the “Rescue of activity of the R301A mutant” value (17X-PTDH-R301A [1]) was “not observed”.

In the case of phosphite, the Kd (17X-PTDH [8]) is reported as 0.023 ± 0.006 mM, the “K m of phosphite” value (R301A; R301A, pH 8.0, no rescue agent) is reported as 300 ± 35 mM and the Kd (R301A; calculated from ^D(V/K), ^DV and K m,Phosphite) is reported as 13 ± 2 mM.

B1: wt enzyme: wild-type phosphite dehydrogenase from Pseudomonas stutzeri WM88 (protein, UniProt O69054 1-336, looked up)
Phosphonate dehydrogenase: MLPKLVITHRVHDEILQLLAPHCELMTNQTDSTLTREEILRRCRDAQAMMAFMPDRVDADFLQACPELRVVGCALKGFDNFDVDACTARGVWLTFVPDLLTVPTAELAIGLAVGLGRHLRAADAFVRSGEFQGWQPQFYGTGLDNATVGILGMGAIGLAMADRLQGWGATLQYHEAKALDTQTEQRLGLRQVACSELFASSDFILLALPLNADTQHLVNAELLALVRPGALLVNPCRGSVVDEAAVLAALERGQLGGYAADVFEMEDWARADRPRLIDPALLAHPNTLFTPHIGSAVRAVRLEIERCAAQNIIQVLAGARPINAANRLPKAEPAAC
In the case of B1, the “solvent isotope effect (SIE) on k cat” value [9] is given as 1.55 and 1.55±0.07, the “observed combined SIE and substrate KIE on kcat” value ([9]; ref (1) Relyea et al., 2005) is given as 2.48 and the “substrate KIE on kcat” value [10] is given as 2.1.

From PMC3909101, “Chemical Rescue and Inhibition Studies to Determine the Role of Arg301 in Phosphite Dehydrogenase” (PLoS ONE, 2014)
